Converted amounts (≈) assume the structure as drawn.
Legend:
Acute Toxicity = details: mouse, in vivo, sc
Protocol: b. The acute toxicity of Antibiotic G-52 in the form of the sulfate salt is determined in the standard manner by administration of the antibiotic to mice (CF-1) intravenously, subcutaneously and intraperitoneally. The results are analyzed by standard probit procedures to determine the LD50 values with 95% confidence limits.

Stability = format: physicochemical
[1] = test system: Staphylococcus aureus A.T.C.C. 6538P; assay: standard disc plate microbiological assay
Solubility = format: physicochemical
[2] = test system: gram-positive and gram-negative microorganisms; assay: Antibacterial activity (general statement); format: cell-based
Escherichia coli = assay: Protective Activity in mice; format: in vivo, Mice (Carworth Farms CF-1); details: sc, S.C., single dose of antibiotic (sulfate) 1 hour after intraperitoneal infection (10^7 organisms), survivors at 48 hours, read-out: PD50
Protocol: (§1) a. Mice (Carworth Farms CF-1 weighing about 18 - 20 grams) are treated with a single dose of antibiotic (sulfate) one (1) hour after an intraperitoneal infection with a lethal (10^7 organisms) quantity of the infectious organism. The number of survivors are determined 48 hours after infection and the data analyzed by standard probit procedures to determine the PD50 values with 95% confidence limits.

Pseudomonas aeruginosa = assay: Protective Activity in mice; format: in vivo, Mice (Carworth Farms CF-1); details: sc, S.C., single dose of antibiotic (sulfate) 1 hour after intraperitoneal infection (10^7 organisms), survivors at 48 hours, read-out: PD50
Protocol: as §1

[3] = test system: Staphylococcus aureus Gray; assay: Protective Activity in mice; format: in vivo, Mice (Carworth Farms CF-1); details: sc, S.C., single dose of antibiotic (sulfate) 1 hour after intraperitoneal infection (10^7 organisms), survivors at 48 hours, read-out: PD50
Protocol: as §1

Escherichia coli 11775 = assay: Minimum Inhibitory Concentration; format: cell-based; details: Tryptose phosphate broth at pH 7.2
From the text: (§2) Test Medium: Tryptose phosphate broth at pH 7.2.

Escherichia coli 578 = assay: Minimum Inhibitory Concentration; format: cell-based; details: Tryptose phosphate broth at pH 7.2
From the text: as §2

[4] = test system: Salmonella paratyphi 13311; assay: Minimum Inhibitory Concentration; format: cell-based; details: Salmonella enterica, pH 7.2
From the text: as §2

[5] = test system: Pseudomonas aeruginosa 236 - GR; assay: Minimum Inhibitory Concentration; format: cell-based; details: Tryptose phosphate broth at pH 7.2
From the text: as §2

Streptococcus pyogenes C = assay: Minimum Inhibitory Concentration; format: cell-based; details: Tryptose phosphate broth at pH 7.2
From the text: as §2

Staphylococcus aureus 45 = assay: Minimum Inhibitory Concentration; format: cell-based; details: Tryptose phosphate broth at pH 7.2
From the text: as §2

[6] = test system: Klebsiella pneumoniae Ad 17 - kR; assay: Minimum Inhibitory Concentration; format: cell-based; details: AD17KR, pH 7.2
From the text: as §2

Proteus mirabilis 8019 = assay: Minimum Inhibitory Concentration; format: cell-based; details: Tryptose phosphate broth at pH 7.2
From the text: as §2

[7] = test system: Pseudomonas aeruginosa 130 - GR; assay: Minimum Inhibitory Concentration; format: cell-based; details: Tryptose phosphate broth at pH 7.2
From the text: as §2

[8] = test system: Staphylococcus aureus 209P; assay: Minimum Inhibitory Concentration; format: cell-based; details: Tryptose phosphate broth at pH 7.2
From the text: as §2

CNCC1=CC[C@@H](N)[C@@H](O[C@H]2[C@H](O)[C@@H](O[C@H]3OC[C@](C)(O)[C@H](NC)[C@H]3O)[C@H](N)C[C@@H]2N)O1 [Antibiotic G-52]
LD50 (Acute Toxicity): 400 mg/kg | stable to boiling (Stability; MacIlvaines buffer from pH 2-8): ≥ 30 min | stable to boiling (Stability; sodium hydroxide-boric acid buffer from pH 8-10): ≥ 30 min | zone of inhibition at 1 µg/disc ([1]; Staphylococcus aureus): 17.7 ± 1 mm | potency (assay) ([1]; against standard antibiotic base (defined potency 1000 mcg/mg)): about 1000 mcg/mg | solubility in organic solvents (Solubility; most polar organic solvents such as lower alcohols, dimethylformamide, dimethylsulfoxide, pyridine): some degree of solubility | solubility in water (Solubility; water): very soluble | effect on growth of gram-positive and gram-negative microorganisms [2]: adversely affect the growth | ED50 (Escherichia coli): 2.5 mg/kg | ED50 (Pseudomonas aeruginosa): 1.5 mg/kg | ED50 [3]: 2.5 mg/kg | MIC (Escherichia coli 11775): 3 µg/mL (≈ 6.5 µM) | MIC (Escherichia coli 578): 7.5 µg/mL (≈ 16.2 µM) | MIC [4]: 17.5 µg/mL (≈ 37.9 µM) | MIC [5]: 25 µg/mL (≈ 54.2 µM) | MIC (Streptococcus pyogenes C): 25 µg/mL (≈ 54.2 µM) | MIC (Staphylococcus aureus 45): 0.8 µg/mL (≈ 1.73 µM) | MIC [6]: 0.8 µg/mL (≈ 1.73 µM) | MIC (Proteus mirabilis 8019): 7.5 µg/mL (≈ 16.2 µM) | MIC [7]: 25 µg/mL (≈ 54.2 µM) | MIC [8]: 0.3 µg/mL (≈ 0.65 µM)

Source: patent US4001209A, “Antibiotic G-52 and method for the production thereof” (Schering Corporation, priority 1975, dated 1977)
